From patent US20130184273A1, “BICYCLIC PYRIMIDINES” (Bayer Intellectual Property GmbH, priority 2010, published 2013) come the findings set out here.

The target of assay [1] is T1, His-tagged human recombinant kinase full-length Akt1 (Homo sapiens, UniProt P31749).
T1 construct: His-tagged human recombinant kinase full-length Akt1; His; purchased Invitrogen PV 3599; host or cells: insect cells
In words: Akt1 kinase assay (TR-FRET). It counts as biochemical. The note with it: 10 μM ATP, 60 min at 22° C., read-out: Akt1, median IC50. The source says: Akt1 inhibitory activity of compounds of the present invention was quantified employing the Akt1 TR-FRET assay as described in the following paragraphs.
His-tagged human recombinant kinase full-length Akt1 expressed in insect cells was purchased form Invitrogen (part number PV 3599). As substrate for the kinase reaction the biotinylated peptide biotin-Ahx-KKLNRTLSFAEPG (C-terminus in amide form) was used which can be purchased e.g. from the company Biosynthan GmbH (Berlin-Buch, Germany).
(§1) For the assay 50 nl of a 100 fold concentrated solution of the test compound in DMSO was pipetted into a black low volume 384well microtiter plate (Greiner Bio-One, Frickenhausen, Germany), 2 μl of a solution of Akt1 in assay buffer [50 mM TRIS/HCl pH 7.5, 5 mM MgCl2, 1 mM dithiothreitol, 0.02% (v/v) Triton X-100 (Sigma)] were added and the mixture was incubated for 15 min at 22° C. to allow pre-binding of the test compounds to the enzyme before the start of the kinase reaction. Then the kinase reaction was started by the addition of 3 μl of a solution of adenosine-tri-phosphate (ATP, 16.7 μM=>final conc. in the 5 μl assay volume is 10 μM) and substrate (1.67 μM=>final conc. in the 5 μl assay volume is 1 μM) in assay buffer and the resulting mixture was incubated for a reaction time of 60 min at 22° C. The concentration of Akt1 in the assay was adjusted depending of the activity of the enzyme lot and was chosen appropriate to have the assay in the linear range, typical enzyme concentrations were in the range of about 0.05 ng/μl (final conc. in the 5 μl assay volume).
The reaction was stopped by the addition of 5 μl of a solution of HTRF detection reagents (200 nM streptavidine-XL665 [Cisbio] and 1.5 nM anti-phosho-Serine antibody [Millipore, cat. #35-001] and 0.75 nM LANCE Eu-W 1024 labeled anti-mouse IgG antibody [Perkin Elmer]) in an aqueous EDTA-solution (100 mM EDTA, 0.1% (w/v) bovine serum albumin in 50 mM HEPES/NaOH pH 7.5). The resulting mixture was incubated 1 h at 22° C. to allow the binding of the biotinylated phosphorylated peptide to the streptavidine-XL665 and the antibodies. Subsequently the amount of phosphorylated substrate was evaluated by measurement of the resonance energy transfer from the anti-mouse-IgG-Eu-Chelate to the streptavidine-XL665. Therefore, the fluorescence emissions at 620 nm and 665 nm after excitation at 350 nm was measured in a HTRF reader, e.g. a Rubystar (BMG Labtechnologies, Offenburg, Germany) or a Viewlux (Perkin-Elmer). The ratio of the emissions at 665 nm and at […] was taken as the measure for the amount of phosphorylated substrate. The data were normalised (enzyme reaction without inhibitor=0% inhibition, all other assay components but no enzyme=100% inhibition).
(In general: Time-resolved FRET reads energy transfer from a long-lived donor to a nearby acceptor.)

The target in assay [2] is T2, His-tagged human recombinant kinase full-length Akt2 (Homo sapiens, UniProt P31751).
T2 construct: His-tagged human recombinant kinase full-length Akt2; His; purchased Invitrogen PV 3975; host or cells: insect cells
Description: Akt2 kinase assay (TR-FRET). It counts as biochemical. The note with it: 10 μM ATP, 60 min at 22° C., read-out: Akt2, median IC50.
Description: Akt2 inhibitory activity of compounds of the present invention was quantified employing the Akt2 TR-FRET assay as described in the following paragraphs.
His-tagged human recombinant kinase full-length Akt2 expressed in insect cells and activated by PDK1 was purchased form Invitrogen (part number PV 3975). As substrate for the kinase reaction the biotinylated peptide biotin-Ahx-KKLNRTLSFAEPG (C-terminus in amide form) was used which can be purchased e.g. from the company Biosynthan GmbH (Berlin-Buch, Germany).
as §1, with “Akt2” for “Akt1”, “0.2” for “0.05”
The reaction was stopped by the addition of 5 μl of a solution of HTRF detection reagents (200 nM streptavidine-XL665 [Cisbio] and 1.5 nM anti-phosho-Serine antibody [Millipore, cat. #35-001] and 0.75 nM LANCE Eu-W 1024 labeled anti-mouse IgG antibody [Perkin Elmer]) in an aqueous EDTA-solution (100 mM EDTA, 0.1% (w/v) bovine serum albumin in 50 mM HEPES/NaOH pH 7.5).
The resulting mixture was incubated 1 h at 22° C. to allow the binding of the biotinylated phosphorylated peptide to the streptavidine-XL665 and the antibodies.
Subsequently the amount of phosphorylated substrate was evaluated by measurement of the resonance energy transfer from the anti-mouse-IgG-Eu-Chelate to the streptavidine-XL665. Therefore, the fluorescence emissions at 620 nm and 665 nm after excitation at 350 nm was measured in a TR-FRET reader, e.g. a Rubystar (BMG Labtechnologies, Offenburg, Germany) or a Viewlux (Perkin-Elmer). The ratio of the emissions at 665 nm and at […] was taken as the measure for the amount of phosphorylated substrate. The data were normalised (enzyme reaction without inhibitor=0% inhibition, all other assay components but no enzyme=100% inhibition).

Assay [3] relates to KPL-4 breast cancer cell line. Description: Tumor cell proliferation assay (CellTiter-Glo). It is filed as cell-based. The note with it: KPL4, 72 h drug exposure. The procedure: Compounds were tested in a cell-based assay that measures the capacity of the compounds to inhibit tumour cell proliferation following a 72 h drug exposure. Cell viability is determined using CellTiter-Glow® (CTG, Promega, cat #G7571/2/3). The CellTiter-Glo® Luminescent Cell Viability Assay is a homogeneous method to determine the number of viable cells in culture. Detection is based on using the luciferase reaction to measure the amount of ATP from viable cells. The amount of ATP in cells correlates with cell viability. Within minutes after a loss of membrane integrity, cells lose the ability to synthesize ATP, and endogenous ATPases destroy any remaining ATP; thus the levels of ATP fall precipitously.
Cells were plated at 3000-5000 cells/well (depending on the cell lines) in 90 μL growth medium on MTPs (Corning; #3603, black plate, clear flat bottom). For each cell line assayed, cells were plated onto a separate plate for determination of […] at t=0 hour and t=72 hour time points. Following overnight incubation at 37° C., chemiluminescence values for the t=0 samples were determined after adding 10 μl medium and 100 μl CTG solution according to manufacture protocol. Plates for the t=72 hour time points were treated with compounds diluted into growth medium at ten times final concentration added in 10 μL to the cell culture plate. Cells were then incubated for 72 hours at 37° C. Chemiluminescence values for the t=72 hour samples were determined. […] Experiments were controlled using a reference compound as standard.

The subject of assay [4] is phospho-AKT at S473 in KPL4 breast tumour cell line. In words: Cellular p-AKT1/2/3-S473 assay. It is filed as cell-based. The note with it: KPL4 cells, treated with compounds for 2 hours; read-out: pAKT-S743 median IC50. How it is done: The molecular mechanism of action was investigated in a set of experiments to assess the inhibition of the PI3K-AKT-mTOR pathway in responsive cell lines such as KPL4 breast tumour cell line (PIK3CAH1047R, HER20/E and hormone independent). The phospho-substrates of PI3K-AKT-mTOR axis were used as the read-outs to reflect pathway inhibition. Cells were seeded at 60-80% confluency per well in 96-well cell culture plates. After overnight incubation at 37° C. 5% CO2, cells were treated with compounds and vehicle at 37° C. for 2 hours. Thereafter, cells were lysed in 150 μl lysis buffer and the levels of phospho-AKT at T308 and S473 and p-4E-BP1 at T70 sites were determined with the corresponding AlphaScreen® SureFire® assay kits (Perkin Elmer: 4E-BP1 Assay Kit Cat # TRG4E2S10K; Akt 1/2/3 p-Ser 473 #TGRA4S500 and Akt 1/2/3 p-Thr 308 #TGRA3S500 as well as IgG detection Kit #6760617M) as described in the manuals. All measurements where at least done in duplicates and confirmed by independent repetition.
Alternatively pAKT-S473 was measured using the “Akt Duplex” of the MULTI-SPOT® Assay System (Fa. Meso Scale Discovery, Cat#N41100B-1) following manufacturers instructions. Each assay used 20 μg of protein extract and measured total AKT and p-AKT content simultaneously in one well. All measurements where at least done in duplicates and confirmed by independent repetition. Values for P-AKT are expressed as percentage of P-AKT level compared to total-AKT content of the extracts.

T1 sequence (P31749 whole entry): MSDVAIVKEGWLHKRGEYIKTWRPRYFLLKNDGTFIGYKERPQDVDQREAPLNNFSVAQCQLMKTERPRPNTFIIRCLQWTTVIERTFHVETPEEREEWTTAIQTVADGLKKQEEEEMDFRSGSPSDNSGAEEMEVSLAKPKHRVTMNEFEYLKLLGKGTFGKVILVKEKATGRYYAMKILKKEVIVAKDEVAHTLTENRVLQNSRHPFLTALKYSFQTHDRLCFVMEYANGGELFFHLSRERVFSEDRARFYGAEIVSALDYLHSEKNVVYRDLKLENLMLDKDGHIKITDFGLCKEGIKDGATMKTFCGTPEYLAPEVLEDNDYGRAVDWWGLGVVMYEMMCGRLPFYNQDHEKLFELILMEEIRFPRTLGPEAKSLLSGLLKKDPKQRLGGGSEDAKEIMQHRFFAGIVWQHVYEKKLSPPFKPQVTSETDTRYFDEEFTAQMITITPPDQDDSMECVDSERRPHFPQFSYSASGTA
T2 sequence (P31751 whole entry): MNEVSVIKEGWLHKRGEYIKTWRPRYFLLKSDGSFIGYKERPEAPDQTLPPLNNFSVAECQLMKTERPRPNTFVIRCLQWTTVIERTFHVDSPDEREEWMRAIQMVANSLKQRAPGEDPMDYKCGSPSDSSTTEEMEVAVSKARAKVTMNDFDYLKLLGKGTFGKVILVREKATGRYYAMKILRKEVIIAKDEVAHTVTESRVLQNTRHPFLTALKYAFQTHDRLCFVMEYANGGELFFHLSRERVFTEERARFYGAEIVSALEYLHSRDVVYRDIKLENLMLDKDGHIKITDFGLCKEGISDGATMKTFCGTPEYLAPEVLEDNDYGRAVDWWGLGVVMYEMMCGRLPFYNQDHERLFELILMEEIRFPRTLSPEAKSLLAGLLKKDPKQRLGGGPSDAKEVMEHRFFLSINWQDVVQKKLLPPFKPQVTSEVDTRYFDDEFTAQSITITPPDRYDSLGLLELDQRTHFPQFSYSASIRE

Take `NC1(c2ccc(-c3nc4nc(C5CC5)nn4cc3-c3ccccc3)cc2)CCC1` [Example 1-4, 1-[4-(2-cyclopropyl-6-phenyl-[1,2,4]triazolo[1,5-a]pyrimidin-5-yl)-phenyl]-cyclobutylamine]: the results for the IC50 in assay [1], in assay [2] and in assay [3] were 755 nM, 408 nM and 1410 nM, respectively.
For the compound `CNc1nc2nc(-c3ccc(C4(N)CCC4)cc3)c(-c3ccccc3)cn2n1` [Example 5-3, {5-[4-(1-amino-cyclobutyl)-phenyl]-6-phenyl-[1,2,4]triazolo[1,5-a]pyrimidin-2-yl}-methyl-amine], the IC50 stood at 527 nM in assay [1], 381 nM in assay [2] and 2170 nM in assay [3].
In the case of `Cc1nc2nc(-c3ccc(C4(N)CCC4)cc3)c(-c3ccccc3)c(NC3CCC3)n2n1` [Example 5-8, {5-[4-(1-amino-cyclobutyl)-phenyl]-2-methyl-6-phenyl-[1,2,4]triazolo[1,5-a]pyrimidin-7-yl}-cyclobutyl-amine], the results for the IC50 in assay [1], in assay [2] and in assay [3] were 731 nM, 303 nM and 3640 nM, respectively.
Consider `CC(C)(C)Nc1c(-c2ccccc2)c(-c2ccc(C3(N)CCC3)cc2)nc2nc(-c3ccccn3)nn12` [Example 3-0, {5-[4-(1-Aminocyclobutyl)-phenyl]-6-phenyl-2-pyridine-2-yl-[1,2,4]triazolo[1,5-a]pyrimidin-7-yl}-tert.-butylamine], for which the values for the IC50 in assay [1], in assay [2] and in assay [3] were 1130 nM, 61 nM and 1740 nM, respectively.
The corresponding values for `CC(C)Nc1nc2nc(-c3ccc(C4(N)CCC4)cc3)c(-c3ccccc3)cn2n1` [Example 5-5, {5-[4-(1-amino-cyclobutyl)-phenyl]-6-phenyl-[1,2,4]triazolo[1,5-a]pyrimidin-2-yl}-isopropyl-amine] are 1470 nM, 234 nM and 2200 nM.
For the compound `NC1(c2ccc(-c3nc4ncc(-c5ccc(F)c(CO)c5)n4cc3-c3ccccc3)cc2)CCC1` [Example 6-1, (5-{7-[4-(1-Amino-cyclobutyl)-phenyl]-6-phenyl-imidazo[1,2-a]pyrimidin-3-yl}-2-fluoro-phenyl)-methanol], the IC50 in assay [2] is 629 nM; in assay [4] it was 540 nM; in assay [3], 2100 nM.

A word on the IC50: it is the point on the concentration scale where inhibition reaches its midpoint.
